Data taken from the supplement of paper PMC10627819.

Key:
S. aureus Newman = experiment: Bliss interaction score (quartile over a dose matrix) (fitness difference); higher = more antagonism (negative = synergy)
Method in brief: (§1)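 The Bliss score subtracts expected fitness, the product of the single-drug fitness values, from observed fitness. Fitness is plate-normalised OD595 at entry into stationary phase, relative to the robust no-drug mean and capped at 1, with single-drug fitness inferred from combinations. Summaries are quartiles over technical, biological and donor/recipient replicates.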

S. pneumoniae D39V [1] = experiment: as above
Method in brief: as §1

B. subtilis 168 [2] = experiment: as above
Method in brief: as §1

S. aureus DSM 20231 [3] = experiment: as above
Method in brief: as §1

S. pneumoniae D39V [4] = experiment: fitness (endpoint OD595 vs no drug) (fraction); higher = more growth
Method in brief: (§2)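 Cultures at OD595 0.01 were dispensed into 384-well plates in TSB, LB Lennox or CY and incubated at 37 °C. Every 30 min for 14 h, OD595 was read and corrected by the first reading. Fitness is the optical density at entry into stationary phase relative to the robust mean of no-drug control wells, capped at 1.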

S. aureus DSM 20231 [5] = experiment: as above
Method in brief: as §2

B. subtilis 168 [6] = experiment: as above; conditions: one replicate, main component drawn
Method in brief: as §2
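For Bliss interaction score (quartile over a dose matrix) in this document: first quartile when negative (synergy) and third quartile when positive (antagonism).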

CO/N=C(\C(=O)N[C@@H]1C(=O)N2C(C(=O)[O-])=C(C[N+]3(C)CCCC3)CS[C@H]12)c1csc(N)n1 [Cefepime] + CCC[C@@H]1C[C@@H](C(=O)N[C@@H]([C@H]2O[C@H](SC)[C@H](O)[C@@H](O)[C@H]2O)[C@@H](C)O)N(C)C1 [Lincomycin]
Conditions	Bliss interaction score
B. subtilis 168 [2]	-0.0344
S. aureus DSM 20231 [3]	0.188
S. aureus Newman	0.0822
S. pneumoniae D39V [1]	0.2

Conditions	fitness
S. aureus DSM 20231 [5], first compound 0.125 µg/mL, partner 0.1 µg/mL	0.877
S. aureus DSM 20231 [5], first compound 0.125 µg/mL, partner 0.2 µg/mL	0.876
S. aureus DSM 20231 [5], first compound 0.25 µg/mL, partner 0.1 µg/mL	0.939
S. aureus DSM 20231 [5], first compound 0.25 µg/mL, partner 0.2 µg/mL	0.908
S. aureus DSM 20231 [5], first compound 0.5 µg/mL, partner 0.1 µg/mL	0.906
S. aureus DSM 20231 [5], first compound 0.5 µg/mL, partner 0.2 µg/mL	0.835
S. pneumoniae D39V [4], first compound 0.007 µg/mL, partner 0.2 µg/mL	0.734
S. pneumoniae D39V [4], first compound 0.007 µg/mL, partner 0.4 µg/mL	0.521
S. pneumoniae D39V [4], first compound 0.007 µg/mL, partner 0.8 µg/mL	0.198
S. pneumoniae D39V [4], first compound 0.0078 µg/mL, partner 0.215 µg/mL	0.909
S. pneumoniae D39V [4], first compound 0.0078 µg/mL, partner 0.43 µg/mL	0.823
S. pneumoniae D39V [4], first compound 0.0078 µg/mL, partner 0.86 µg/mL	0.593
S. pneumoniae D39V [4], first compound 0.014 µg/mL, partner 0.2 µg/mL	0.729
S. pneumoniae D39V [4], first compound 0.014 µg/mL, partner 0.4 µg/mL	0.523
S. pneumoniae D39V [4], first compound 0.014 µg/mL, partner 0.8 µg/mL	0.185
S. pneumoniae D39V [4], first compound 0.0155 µg/mL, partner 0.215 µg/mL	0.878
S. pneumoniae D39V [4], first compound 0.0155 µg/mL, partner 0.43 µg/mL	0.821
S. pneumoniae D39V [4], first compound 0.0155 µg/mL, partner 0.86 µg/mL	0.514
S. pneumoniae D39V [4], first compound 0.028 µg/mL, partner 0.2 µg/mL	0.674
S. pneumoniae D39V [4], first compound 0.028 µg/mL, partner 0.4 µg/mL	0.458
S. pneumoniae D39V [4], first compound 0.028 µg/mL, partner 0.8 µg/mL	0.133
S. pneumoniae D39V [4], first compound 0.031 µg/mL, partner 0.215 µg/mL	0.82
S. pneumoniae D39V [4], first compound 0.031 µg/mL, partner 0.43 µg/mL	0.723
S. pneumoniae D39V [4], first compound 0.031 µg/mL, partner 0.86 µg/mL	0.323

CO/N=C(\C(=O)N[C@@H]1C(=O)N2C(C(=O)[O-])=C(C[N+]3(C)CCCC3)CS[C@H]12)c1csc(N)n1 [Cefepime] + COc1cc(Cc2cnc(N)nc2N)cc(OC)c1OC [Trimethoprim]
Conditions	Bliss interaction score
B. subtilis 168 [2]	0.0732
S. aureus DSM 20231 [3]	0.0714
S. aureus Newman	0.0778
S. pneumoniae D39V [1]	0.255

fitness, S. aureus DSM 20231 [5]
Conditions	partner 0.125 µg/mL	partner 0.25 µg/mL	partner 0.5 µg/mL	partner 1 µg/mL
first compound 0.125 µg/mL	0.629	0.556	0.272	0.0708
first compound 0.25 µg/mL	0.631	0.573	–	0.0608
first compound 0.5 µg/mL	0.679	0.612	–	0.0509

CN(C)C(=O)C(CCN1CCC(O)(c2ccc(Cl)cc2)CC1)(c1ccccc1)c1ccccc1 [Loperamide] + CCC(C)C1C(=O)NC(=C)C(=O)NC(C(=O)NC(CSCC(C(=O)N1)NC(=O)/C(=C/C)/NC(=O)C(C(C)CC)N)C(=O)NC2C(SCC(NC(=O)CNC(=O)C3CCCN3C2=O)C(=O)NC(CCCCN)C(=O)NC4C(SCC(NC(=O)CNC(=O)C(NC(=O)C(NC(=O)C(NC(=O)CNC4=O)C)CC(C)C)CCSC)C(=O)NC(CC(=O)N)C(=O)NC(CCSC)C(=O)NC(CCCCN)C(=O)NC5C(SCC6C(=O)NC(C(=O)NC(CSC(C(C(=O)N6)NC(=O)C(NC5=O)C)C)C(=O)NC(CO)C(=O)NC(C(C)CC)C(=O)NC(CC7=CN=CN7)C(=O)NC(C(C)C)C(=O)NC(=C)C(=O)NC(CCCCN)C(=O)O)CC8=CN=CN8)C)C)C)CC(C)C [Nisin]
main component drawn
Conditions	Bliss interaction score
B. subtilis 168 [2]	-0.126
S. aureus DSM 20231 [3]	-0.423
S. aureus Newman	-0.076
S. pneumoniae D39V [1]	-0.175

S. pneumoniae D39V [4], main component drawn
Conditions	fitness
first compound 17.14 µg/mL, partner 1.6 µg/mL	0.0272
first compound 17.14 µg/mL, partner 3.2 µg/mL	0.0109
first compound 17.14 µg/mL, partner 6.4 µg/mL	0.0062
first compound 20 µg/mL, partner 0.4275 µg/mL	0.827
first compound 20 µg/mL, partner 1.71 µg/mL	0.063
first compound 34.28 µg/mL, partner 1.6 µg/mL	0.0162
first compound 34.28 µg/mL, partner 3.2 µg/mL	0
first compound 34.28 µg/mL, partner 6.4 µg/mL	0.0091
first compound 40 µg/mL, partner 0.4275 µg/mL	0.145
first compound 40 µg/mL, partner 0.855 µg/mL	0.0969
first compound 40 µg/mL, partner 1.71 µg/mL	0.0997
first compound 80 µg/mL, partner 0.4275 µg/mL	0.0928
first compound 80 µg/mL, partner 0.855 µg/mL	0.073
first compound 80 µg/mL, partner 1.71 µg/mL	0.102

S. pneumoniae D39V [4], first compound 68.57 µg/mL, one replicate, main component drawn
Conditions	fitness
partner 1.6 µg/mL	0.001
partner 3.2 µg/mL	0
partner 6.4 µg/mL	0

fitness, B. subtilis 168 [6]
Conditions	first compound 25 µg/mL	first compound 50 µg/mL	first compound 100 µg/mL
partner 0.5 µg/mL	0.435	0.0779	0.108
partner 1 µg/mL	0.11	0.0703	0.0347
partner 1.25 µg/mL	0.204	0.0476	0.0457
partner 1.6 µg/mL	0.1	0.0166	0.0155
partner 2 µg/mL	0.088	0.0708	0.0438
partner 2.5 µg/mL	0.0567	0.0575	0.0577
partner 3.2 µg/mL	0.0289	0.0291	0.0362
partner 4 µg/mL	0.0315	0.0232	0.0127
partner 5 µg/mL	0.0493	0.0332	0.0475
partner 6.4 µg/mL	0.035	0.0454	0.077
partner 8 µg/mL	0.0084	0.0257	0.0094
partner 16 µg/mL	0.0263	0.037	0.0142
